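Exposure lasted 48 hours, with cells grown in 96-well plates and compounds tested at five concentrations. GI50 marks 50% less growth. TGI is the concentration that stops growth completely.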
Experiments:
Test in all cases: DTP human tumour cell line panel, 48 h
U251 CNS = test system: U251 CNS
IGROV1 ovarian = test system: IGROV1 ovarian
UO-31 renal = test system: UO-31 renal
HCT-116 colon = test system: HCT-116 colon
UACC-62 melanoma = test system: UACC-62 melanoma
K-562 leukemia = test system: K-562 leukemia
NCI-H23 lung = test system: NCI-H23 lung
RXF 393 renal = test system: RXF 393 renal
A498 renal = test system: A498 renal
HT29 colon = test system: HT29 colon

Compound | GI50 (U251 CNS) [µM] | TGI (U251 CNS) [µM] | GI50 (IGROV1 ovarian) [µM] | TGI (IGROV1 ovarian) [µM] | GI50 (UO-31 renal) [µM] | TGI (UO-31 renal) [µM] | GI50 (HCT-116 colon) [µM] | TGI (HCT-116 colon) [µM] | GI50 (UACC-62 melanoma) [µM] | TGI (UACC-62 melanoma) [µM] | GI50 (K-562 leukemia) [µM] | TGI (K-562 leukemia) [µM] | GI50 (NCI-H23 lung) [µM] | TGI (NCI-H23 lung) [µM] | GI50 (RXF 393 renal) [µM] | TGI (RXF 393 renal) [µM] | GI50 (A498 renal) [µM] | TGI (A498 renal) [µM] | GI50 (HT29 colon) [µM] | TGI (HT29 colon) [µM]
COc1ccc(-c2nnc(N3CCN(C(=O)CN4CCN(c5ccc(Cl)cc5)CC4)CC3)nc2-c2ccc(OC)cc2)cc1 | 15 | > 100 | 29.4 | > 100 | 6.92 | > 100 | 5.99 | > 100 | 31.5 | > 100 | 15.2 | > 100 | 24.4 | > 100 | 18.9 | > 100 | 27.7 | 72.2 | 4.74 | > 100
CN(C)CC1(Cc2ccccc2)CCC(Cc2ccccc2)C1=O (stereo unspecified) |  | 31.8 |  | 24.1 |  | 30.7 |  | 26.7 |  | 32.5 |  | 7.74 |  | 36.1 |  | 27.5 |  | 29.8 |  | 28.6
C=C1CC2(CCCC3(CC(=C)C(=O)O3)C2(C)C)OC1=O (stereo unspecified) |  | 4.56 |  | 23.5 |  | 9.53 |  | 5.22 |  | 4.65 |  | 13.7 |  | 12.1 |  | 31 |  | 41.9 |  | 15
O=S(=O)(NCCNc1cc(-c2cn(-c3ccccc3)nc2-c2cccc(O)c2)ccn1)c1ccc(Cl)cc1 | 3.21 | 11.4 | 3.82 | 24.2 | 2.92 | 12.1 | 2.69 | 11.4 | 2.08 | 5.08 | 1.98 | 5.4 | 3.07 | 13.4 | 2.86 | 10.1 | 2.33 | 9.52 | 2.24 | 5.21
CC(C)(C)OC(=O)CN1CCc2c(sc3ncnc(N/N=C/c4cccc5ccccc45)c23)C1 | 3.18 | 14.6 | 1.87 | 7.4 | 1.19 | 5.87 | 1.65 | 6.73 | 1.32 | 5.48 | 1.08 | > 33.3 | 4.19 | 17.4 | 1.56 | 6.93 | 3.78 | 11.9 | 3.47 | 12.3
Cc1cc(C)n(C(=O)c2nn(-c3ccc(Cl)cc3)cc2O)n1 | 2.68 | > 100 | 3.16 | 73.3 | 3.01 | 19.2 | 3.42 | 48.2 | 3.46 | 18.6 | > 100 | > 100 | 3.31 | > 100 | 4.58 | > 100 | 2.9 | 8.77 | 32.9 | > 100
C/C1=C/C(=O)O[C@@H]2C[C@@H](CC[C@H](C)/C=C\C=C\CC1)O[C@@](OCCc1ccccc1)([C@@H]1CSC(=O)N1)C2 | 0.189 | > 17.5 | 0.0275 | 0.074 | 0.0386 | 0.173 | 0.225 | > 17.5 | 0.104 | > 17.5 | 0.954 | > 17.5 | 0.142 | > 17.5 | 0.0363 | 0.158 | 0.0313 | 0.133 | 0.0793 | > 15
COc1cc2cc(Oc3ccc(NC(=O)Nc4ccc(Cl)c(C(F)(F)F)c4)cc3)c(C)nc2cc1OC | 1.03 | 3.78 | 2.34 | 9.83 | 0.924 | 2.38 | 0.994 | 3.84 | 1.24 | 6.01 | 1.11 | 4.81 | 0.991 | 3.79 | 1.33 | 4.21 | 0.754 | 3.32 | 1.2 | 3.98
COc1cc2c([C@@H](OC(=O)c3ccccc3)c3ccc4c(c3)OCO4)nccc2c(OC)c1OC |  | > 100 |  | > 100 |  | 24.9 |  | > 100 |  | > 100 |  | > 100 |  | > 100 |  | 85.3 |  | > 100 |  | > 100
CN1CCN(CCNc2ccc(CO)c3sc4ccccc4c(=O)c23)CC1 |  | 14.6 |  | 27.2 |  | 19.6 |  | 8.24 |  | 9.93 |  | 14.7 |  | 17.6 | 0.0726 | 1.82 | 2.51 | 8.2 |  | 7.86
COc1cc(NCc2ccccc2O)c2ncccc2c1 | 23.7 | > 100 | 13.7 | 56.2 | 7.17 | 75.8 | 16.6 | 63.4 | 11.2 | 53.1 | 17.2 | > 100 | 22.5 | 97.3 | 18.5 | 68.8 | 13.2 | 60.5 | 19.4 | 94.1
O=C(Nc1ccccc1O)c1ccc(CNC(=O)c2sccc2Nc2ccnc(C(F)(F)F)c2)cc1 | 5.44 | 20.8 | 14 | 32.7 | 2.82 | 15.9 | 4.61 | 15.2 | 4.13 | 20 | 5.72 | 62.5 | 5.73 | 41.2 | 3.28 | 15.6 | 2.62 | 9.7 | 6.21 | 27
COc1ccc(CC(NC(=O)[C@H](C)NC(=O)CN2CCOCC2)C(=O)N[C@@H](Cc2ccccc2)C(=O)[C@@]2(C)CO2)cc1 (stereo partly specified) | 0.271 | 1.07 | 0.409 | 7.3 | 3.2 | 15.2 | 0.181 | 0.49 | 0.182 | 0.479 | 0.268 |  | 0.196 | 0.695 | 0.237 | 0.658 | 0.224 | 0.893 | 0.339 | > 33.9

Source: PubChem BioAssay (NCI)
